Reference: ChEMBL document CHEMBL3784985, “Thiadiazole derivatives as New Class of β-glucuronidase inhibitors” (Bioorg Med Chem, 2016)

biological target: T1, Beta-glucuronidase (Bos taurus, UniProt A3KMY8); assay: Inhibition of bovine beta-glucuronidase assessed as p-nitrophenol formation preincubated for 30 mins followed by addition of p-nitrophenyl-beta-D-glucuronide by spectrophotometric analysis
T1 sequence (A3KMY8 whole entry): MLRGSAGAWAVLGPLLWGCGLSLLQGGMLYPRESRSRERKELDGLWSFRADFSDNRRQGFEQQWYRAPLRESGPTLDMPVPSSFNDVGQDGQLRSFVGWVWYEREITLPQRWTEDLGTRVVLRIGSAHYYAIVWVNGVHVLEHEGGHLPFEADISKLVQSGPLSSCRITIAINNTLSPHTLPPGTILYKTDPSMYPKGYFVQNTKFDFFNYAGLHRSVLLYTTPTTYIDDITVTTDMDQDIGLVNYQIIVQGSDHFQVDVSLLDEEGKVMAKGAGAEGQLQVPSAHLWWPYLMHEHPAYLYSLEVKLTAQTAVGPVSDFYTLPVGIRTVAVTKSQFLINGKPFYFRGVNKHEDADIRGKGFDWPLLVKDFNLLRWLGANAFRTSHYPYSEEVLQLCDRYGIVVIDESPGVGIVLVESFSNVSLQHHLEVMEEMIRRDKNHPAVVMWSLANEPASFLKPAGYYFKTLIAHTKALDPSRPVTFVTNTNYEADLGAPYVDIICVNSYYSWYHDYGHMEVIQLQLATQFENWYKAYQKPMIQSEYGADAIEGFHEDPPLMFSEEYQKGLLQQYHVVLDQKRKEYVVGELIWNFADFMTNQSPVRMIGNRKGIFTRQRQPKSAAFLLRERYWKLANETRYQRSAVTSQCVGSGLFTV

IC50 [µM]	Compound
48.4	Cc1ccc(Nc2nnc(-c3ccccc3)s2)cc1
40.2	Brc1ccc(-c2nnc(Nc3ccccc3)s2)cc1
28.6	Cc1ccc(Nc2nnc(-c3ccc(Br)cc3)s2)cc1
15.6	Cc1ccc(-c2nnc(Nc3ccc(Cl)c(Cl)c3)s2)c(C)c1
49.2	COc1ccccc1-c1nnc(Nc2cccc(Br)c2)s1
6.28	Clc1ccc(Nc2nnc(-c3ccccc3)s2)cc1Cl
17.3	Brc1ccc(-c2nnc(Nc3cccc(Br)c3)s2)cc1
58.1	COc1ccccc1-c1nnc(Nc2ccc(C)cc2)s1
39.3	COc1ccc(-c2nnc(Nc3ccc(C)cc3)s2)c(OC)c1
32.2	CC(C)(C)c1ccc(-c2nnc(Nc3ccc(Br)cc3)s2)cc1
36.1	Cc1ccc(-c2nnc(Nc3cccc(Br)c3)s2)c(C)c1
29.7	COc1ccc(-c2nnc(Nc3ccc(Br)cc3)s2)c(OC)c1
22.6	COc1ccc(Nc2nnc(-c3ccccc3Cl)s2)cc1
19.2	COc1cc(OC)cc(-c2nnc(Nc3ccc(Cl)c(Cl)c3)s2)c1
26.3	Cc1ccc(Nc2nnc(-c3ccc(C(C)(C)C)cc3)s2)cc1
50.3	COc1cc(OC)cc(-c2nnc(Nc3ccc(C)cc3)s2)c1
7.16	Clc1ccc(Nc2nnc(-c3ccc(Br)cc3)s2)cc1Cl
16.7	Cc1ccc(Nc2nnc(-c3ccccc3Cl)s2)cc1
34.2	Cc1ccc(Nc2nnc(-c3ccc(C)cc3C)s2)cc1
31.1	COc1cccc(Nc2nnc(-c3ccc(Br)cc3)s2)c1
8.96	Clc1ccccc1-c1nnc(Nc2cccc(Br)c2)s1
22.6	COc1ccccc1-c1nnc(Nc2ccc(Cl)c(Cl)c2)s1
